Reference: the CheMixHub viscosity set

Assay: xn = mol fraction of the nth substance listed

Cc1ccccc1 + CCCO
Details	viscosity [mPa·s]
293.15 K, 100 kPa, x2 = 0.125	0.611
293.15 K, 100 kPa, x2 = 0.25	0.636
293.15 K, 100 kPa, x2 = 0.375	0.747
293.15 K, 100 kPa, x2 = 0.5	0.875
293.15 K, 100 kPa, x2 = 0.625	1.055
293.15 K, 100 kPa, x2 = 0.75	1.312
293.15 K, 100 kPa, x2 = 0.875	1.685
298.15 K, 100 kPa, x2 = 0.0553	0.5596
298.15 K, 100 kPa, x2 = 0.1089	0.572
298.15 K, 100 kPa, x2 = 0.1987	0.5972
298.15 K, 100 kPa, x2 = 0.319	0.6607
298.15 K, 100 kPa, x2 = 0.4308	0.7379
298.15 K, 100 kPa, x2 = 0.5349	0.7998
298.15 K, 100 kPa, x2 = 0.632	0.9538
298.15 K, 100 kPa, x2 = 0.723	1.116
298.15 K, 100 kPa, x2 = 0.8083	1.265
298.15 K, 100 kPa, x2 = 0.8884	1.563
298.15 K, 100 kPa, x2 = 0.9639	1.825
298.15 K, 101 kPa, x2 = 0.1	0.558
298.15 K, 101 kPa, x2 = 0.2	0.588
298.15 K, 101 kPa, x2 = 0.3	0.6389
298.15 K, 101 kPa, x2 = 0.4	0.7091
298.15 K, 101 kPa, x2 = 0.5	0.801
298.15 K, 101 kPa, x2 = 0.6	0.9211
298.15 K, 101 kPa, x2 = 0.7	1.08
298.15 K, 101 kPa, x2 = 0.8	1.292
298.15 K, 101 kPa, x2 = 0.9	1.576
303 K, 101 kPa, x1 = 0.1006	1.367
303 K, 101 kPa, x1 = 0.2012	1.171
303 K, 101 kPa, x1 = 0.3009	1.025
303 K, 101 kPa, x1 = 0.3981	0.902
303 K, 101 kPa, x1 = 0.5016	0.785
303 K, 101 kPa, x1 = 0.6052	0.699
303 K, 101 kPa, x1 = 0.7001	0.645
303 K, 101 kPa, x1 = 0.8095	0.598
303 K, 101 kPa, x1 = 0.9011	0.546
303.15 K, 101.33 kPa, x1 = 0.1141	1.376
303.15 K, 101.33 kPa, x1 = 0.1926	1.182
303.15 K, 101.33 kPa, x1 = 0.2912	0.982
303.15 K, 101.33 kPa, x1 = 0.3778	0.866
303.15 K, 101.33 kPa, x1 = 0.4778	0.761
303.15 K, 101.33 kPa, x1 = 0.6242	0.651
303.15 K, 101.33 kPa, x1 = 0.7421	0.587
303.15 K, 101.33 kPa, x1 = 0.8737	0.541
303.15 K, 101.33 kPa, x1 = 0.9517	0.527
308.15 K, 100 kPa, x2 = 0.0553	0.5017
308.15 K, 100 kPa, x2 = 0.1089	0.5107
308.15 K, 100 kPa, x2 = 0.1987	0.5293
308.15 K, 100 kPa, x2 = 0.319	0.572
308.15 K, 100 kPa, x2 = 0.4308	0.6289
308.15 K, 100 kPa, x2 = 0.5349	0.6996
308.15 K, 100 kPa, x2 = 0.632	0.7945
308.15 K, 100 kPa, x2 = 0.723	0.8952
308.15 K, 100 kPa, x2 = 0.8083	1.019
308.15 K, 100 kPa, x2 = 0.8884	1.24
308.15 K, 100 kPa, x2 = 0.9639	1.422
308.15 K, 101.33 kPa, x1 = 0.1141	1.251
308.15 K, 101.33 kPa, x1 = 0.1926	1.078
308.15 K, 101.33 kPa, x1 = 0.2912	0.899
308.15 K, 101.33 kPa, x1 = 0.3778	0.795
308.15 K, 101.33 kPa, x1 = 0.4778	0.703
308.15 K, 101.33 kPa, x1 = 0.6242	0.608
308.15 K, 101.33 kPa, x1 = 0.7421	0.553
308.15 K, 101.33 kPa, x1 = 0.8737	0.514
308.15 K, 101.33 kPa, x1 = 0.9517	0.499
313.15 K, 100 kPa, x2 = 0.125	0.479
313.15 K, 100 kPa, x2 = 0.25	0.495
313.15 K, 100 kPa, x2 = 0.375	0.554
313.15 K, 100 kPa, x2 = 0.5	0.625
313.15 K, 100 kPa, x2 = 0.625	0.728
313.15 K, 100 kPa, x2 = 0.75	0.876
313.15 K, 100 kPa, x2 = 0.875	1.087
313.15 K, 101.33 kPa, x1 = 0.1141	1.15
313.15 K, 101.33 kPa, x1 = 0.1926	0.99
313.15 K, 101.33 kPa, x1 = 0.2912	0.83
313.15 K, 101.33 kPa, x1 = 0.3778	0.736
313.15 K, 101.33 kPa, x1 = 0.4778	0.655
313.15 K, 101.33 kPa, x1 = 0.6242	0.57
313.15 K, 101.33 kPa, x1 = 0.7421	0.521
313.15 K, 101.33 kPa, x1 = 0.8737	0.491
313.15 K, 101.33 kPa, x1 = 0.9517	0.476

COc1ccccc1 + CCCCCCO
viscosity [mPa·s], 101.33 kPa
Details	x1 = 0.0998	x1 = 0.2	x1 = 0.3002	x1 = 0.4	x1 = 0.5	x1 = 0.6002	x1 = 0.6997	x1 = 0.8001	x1 = 0.9
303.15 K	3.055	2.413	1.969	1.661	1.423	1.27	1.097	1.009	0.927
313.15 K	2.325	1.886	1.569	1.334	1.166	1.049	0.932	0.858	0.798
323.15 K	1.798	1.481	1.248	1.107	0.966	0.878	0.786	0.744	0.699

CCCc1ccccc1 + C1COCCO1
303.15 K, 101.3 kPa
Details	viscosity [mPa·s]
x2 = 0.1061	0.7763
x2 = 0.1984	0.8007
x2 = 0.2968	0.8298
x2 = 0.399	0.8589
x2 = 0.4945	0.8922
x2 = 0.5985	0.9278
x2 = 0.7003	0.9648
x2 = 0.8026	1.005
x2 = 0.9025	1.045

CCC(N)(CO)CO + O
viscosity [mPa·s], 101.33 kPa
Details	x1 = 0.0364	x1 = 0.0916	x1 = 0.185	x1 = 0.261	x1 = 0.377
303.15 K	1.765	4.993	21.96	56.54	199.2
313.15 K	1.356	3.435	12.89	30.13	85.62
323.15 K	1.053	2.504	8.22	17.36	44.4

CC(C)=O + CO
Details	viscosity [mPa·s]
293.15 K, 101 kPa, x1 = 0.025	0.563
293.15 K, 101 kPa, x1 = 0.098	0.507
293.15 K, 101 kPa, x1 = 0.244	0.435
293.15 K, 101 kPa, x1 = 0.385	0.389
293.15 K, 101 kPa, x1 = 0.487	0.371
293.15 K, 101 kPa, x1 = 0.703	0.342
293.15 K, 101 kPa, x1 = 0.865	0.333
298.15 K, 101.33 kPa, x1 = 0.059	0.4921
298.15 K, 101.33 kPa, x1 = 0.1261	0.455
298.15 K, 101.33 kPa, x1 = 0.1889	0.4225
298.15 K, 101.33 kPa, x1 = 0.2564	0.3965
298.15 K, 101.33 kPa, x1 = 0.3691	0.367
298.15 K, 101.33 kPa, x1 = 0.4581	0.3458
298.15 K, 101.33 kPa, x1 = 0.558	0.3292
298.15 K, 101.33 kPa, x2 = 0.7146	0.3932
303.15 K, 101 kPa, x1 = 0.025	0.496
303.15 K, 101 kPa, x1 = 0.098	0.449
303.15 K, 101 kPa, x1 = 0.244	0.389
303.15 K, 101 kPa, x1 = 0.385	0.352
303.15 K, 101 kPa, x1 = 0.703	0.314
303.15 K, 101 kPa, x1 = 0.865	0.308
313.15 K, 101 kPa, x1 = 0.025	0.435
313.15 K, 101 kPa, x1 = 0.244	0.349
313.15 K, 101 kPa, x1 = 0.385	0.322
313.15 K, 101 kPa, x1 = 0.487	0.311
313.15 K, 101 kPa, x1 = 0.703	0.291
313.15 K, 101 kPa, x1 = 0.865	0.287
318.15 K, 101 kPa, x1 = 0.025	0.411
318.15 K, 101 kPa, x1 = 0.098	0.378
318.15 K, 101 kPa, x1 = 0.244	0.335
318.15 K, 101 kPa, x1 = 0.385	0.311
318.15 K, 101 kPa, x1 = 0.487	0.3
318.15 K, 101 kPa, x1 = 0.703	0.282
318.15 K, 101 kPa, x1 = 0.865	0.277
323.15 K, 101 kPa, x1 = 0.025	0.386
323.15 K, 101 kPa, x1 = 0.098	0.362
323.15 K, 101 kPa, x1 = 0.244	0.32

CC(C)CC(=O)O + O
viscosity [mPa·s], 101.33 kPa
Details	293.15 K	313.15 K
x1 = 0.0036	1.106	0.724
x1 = 0.0073	1.161	0.742

C1CCOC1 + CCCCCCC
viscosity [mPa·s], 101 kPa
Details	x1 = 0.1338	x1 = 0.2578	x1 = 0.3733	x1 = 0.4809	x1 = 0.5815	x1 = 0.6758	x1 = 0.7643	x1 = 0.8475	x1 = 0.926
293.15 K	0.403	0.4075	0.413	0.4191	0.4285	0.4385	0.4495	0.4619	0.4751
298.15 K	0.3861	0.3891	0.3935	0.3984	0.4061	0.4146	0.4242	0.4356	0.4465
